The text below walks through data of patent US20130096310A1, “ISOQUINOLINE DERIVATIVE” (TAISHO PHARMACEUTICAL CO., LTD., priority 2010, published 2013).

The assay addresses T1, CRTH2 (Homo sapiens, UniProt Q9Y5Y4).
T1 construct: expressed in transfected cells; host or cells: KB8 cells (human)
T1 sequence (Q9Y5Y4 1-395): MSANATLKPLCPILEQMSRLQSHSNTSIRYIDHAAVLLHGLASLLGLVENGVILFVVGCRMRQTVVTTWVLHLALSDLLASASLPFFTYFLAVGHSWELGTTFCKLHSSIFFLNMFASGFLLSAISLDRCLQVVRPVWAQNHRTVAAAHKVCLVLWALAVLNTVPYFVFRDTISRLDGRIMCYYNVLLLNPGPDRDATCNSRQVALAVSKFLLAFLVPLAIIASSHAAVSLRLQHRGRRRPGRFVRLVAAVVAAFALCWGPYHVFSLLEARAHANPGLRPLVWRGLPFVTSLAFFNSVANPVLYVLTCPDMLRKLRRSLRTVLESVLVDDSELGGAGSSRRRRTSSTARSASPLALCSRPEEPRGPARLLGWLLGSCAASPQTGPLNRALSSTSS
Description: CRTH2 antagonist test: inhibition of PGD2-induced intracellular calcium ion concentration increase in KB8 cells. The settings on record: KB8 cells (human cells expressing CRTH2); PGD2 final concentration 100 nM; Fluo-4-AM, FDSS6000. Type of assay: cell-based. On the procedure:
The antagonist activity of the compound of the present invention was considered by using the intracellular calcium ion concentration increase reaction induced when the prostaglandin D2 was added to KB8 cells, which are human cells on which CRTH2 is expressed.
Fluo-4-AM (SIGMA, final concentration: 1 μM) was added to KB8 cells, and the cells were incubated at 37° C. for 30 minutes, washed with phosphate buffer (Invitrogen), and then suspended in Hank's balanced salt solution (Invitrogen) containing a reaction buffer solution (10 mM HEPES (Invitrogen), and 1 mM calcium chloride (SIGMA)). The suspension was dispensed in a 96 well plate (Nunc) so that 2×10^5 cells/well were placed, and the compound of the present invention and PGD2 (final concentration: 100 nM) were added. The fluorescence intensity thereof was measured over time by using FDSS6000 (Hamamatsu Photonics), and thus the maximum fluorescence intensity value “d” was obtained. The same procedure was carried out in the absence of the compound, and the maximum fluorescence intensity value “e” was obtained; and the same procedure was carried out in the absence of the compound and in […], and the maximum fluorescence intensity value “f” was obtained.
The calcium ion concentration increase inhibition rate of a compound was calculated by the following calculation equation:
Inhibitory rate(%)=[1−(d−f)/(e−f)]×100
That is to say, by using calcium ion concentration increase inhibitory rates of compounds to be tested having various concentrations, the IC50 value was calculated according to a dose-dependent inhibition curve analyzed by using XLfit (IDBS) as a data analysis software, and the value was defined as an indicator of the antagonist activity.
A general note: Calcium flux is commonly read through the fluorescence of an indicator in the cells.
A word on the IC50: it is the point on the concentration scale where inhibition reaches its midpoint. As to `O=C(O)Cc1cnc(Cc2ccc(C(=O)NCCc3ccc(Cl)cc3)c(C(F)(F)F)c2)c2ccccc12` [Example 7, {1-[4-{[2-(4-chlorophenyl)ethyl]carbamoyl}-3-(trifluoromethyl)benzyl]isoquinolin-4-yl}acetic acid], the IC50 was 0.014 µM.

On to `O=C(O)Cc1cnc(Cc2ccc(C(=O)NCCc3ccc(Cl)cc3)cc2F)c2ccccc12` [Example 4, [1-(4-{[2-(4-chlorophenyl)ethyl]carbamoyl}-2-fluorobenzyl)isoquinolin-4-yl]acetic acid], for which the IC50 came out at 0.015 µM.

On to `CC(c1ccc(C(=O)NCCc2ccc(Cl)cc2)cc1)c1ncc(CC(=O)O)c2ccccc12` (stereo not shown) [Example 1, {1-[1-(4-{[2-(4-chlorophenyl)ethyl]carbamoyl}phenyl)ethyl]isoquinolin-4-yl}acetic acid], for which the half-maximal inhibitory concentration (IC50) was 0.0044 µM.

On to `Cc1cc(Cc2ncc(CC(=O)O)c3ccccc23)ccc1C(=O)NCCc1ccc(Cl)cc1` [Example 5, [1-(4-{[2-(4-chlorophenyl)ethyl]carbamoyl}-3-methylbenzyl)isoquinolin-4-yl]acetic acid], for which the IC50 was determined as 0.042 µM.

With `O=C(O)Cc1cnc(Cc2ccc(C(=O)NCCc3ccc(Cl)cc3)c(F)c2)c2ccccc12` [Example 6, [1-(4-{[2-(4-chlorophenyl)ethyl]carbamoyl}-3-fluorobenzyl)isoquinolin-4-yl]acetic acid], the IC50 turned out to be 0.0087 µM.

Consider `COc1cc(Cc2ncc(CC(=O)O)c3ccccc23)ccc1C(=O)NCCc1ccc(Cl)cc1` [Example 3, [1-(4-{[2-(4-chlorophenyl)ethyl]carbamoyl}-3-methoxybenzyl)isoquinolin-4-yl]acetic acid], for which the half-inhibitory concentration (IC50) amounted to 0.017 µM.

As to `O=C(O)Cc1cnc(C(F)(F)c2ccc(C(=O)NCCc3ccc(Cl)cc3)cc2)c2ccccc12` [Example 2, {1-[(4-{[2-(4-chlorophenyl)ethyl]carbamoyl}phenyl)(difluoro)methyl]isoquinolin-4-yl}acetic acid], the IC50 was 0.036 µM.
